# In PMC12179037, “Degradation of beechwood xylan using food-grade bacteria-like particles displaying β-xylosidase from Limosilactobacillus fermentum” (Bioresources and Bioprocessing, 2025):
# Target: T1, Xyl-L-CshA (LfXyl43 β-xylosidase with C-terminal CshA anchor) (Limosilactobacillus fermentum, UniProt Z9FCD9CVP2)
# T1 construct: LfXyl43 fused through (GGGGS)3 linker to C-terminal surface anchor CshA of Lactiplantibacillus plantarum SK156; 6xHis tag; pET21b(+), E. coli BL21(DE3)
# T1 sequence (Z9FCD9CVP2 1-551): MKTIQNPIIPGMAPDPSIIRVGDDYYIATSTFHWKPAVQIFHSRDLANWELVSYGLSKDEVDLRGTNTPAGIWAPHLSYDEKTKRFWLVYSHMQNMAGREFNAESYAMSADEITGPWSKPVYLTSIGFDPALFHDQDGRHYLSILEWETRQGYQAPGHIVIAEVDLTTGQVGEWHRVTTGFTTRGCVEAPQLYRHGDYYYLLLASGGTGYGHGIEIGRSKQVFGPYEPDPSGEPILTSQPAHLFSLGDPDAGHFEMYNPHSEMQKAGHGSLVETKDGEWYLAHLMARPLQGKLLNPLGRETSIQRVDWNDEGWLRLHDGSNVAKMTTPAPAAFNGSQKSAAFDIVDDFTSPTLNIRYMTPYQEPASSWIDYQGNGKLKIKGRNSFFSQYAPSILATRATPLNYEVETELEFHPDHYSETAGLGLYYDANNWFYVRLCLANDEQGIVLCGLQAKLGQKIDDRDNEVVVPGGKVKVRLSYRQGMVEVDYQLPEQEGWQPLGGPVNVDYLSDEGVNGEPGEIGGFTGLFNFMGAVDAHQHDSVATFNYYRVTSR
# Assay: reducing sugar release (DNSA, […] nm); TLC
# Type: biochemical
# Conditions: purified fusion protein immobilised on bacteria-like particles; 2 mM substrate; 50 mM sodium phosphate pH 7.0; 35 °C; 5 min
smiles,measurement,value
OC1OC[C@@H](O[C@@H]2OC[C@@H](O)[C@H](O)[C@H]2O)[C@H](O)[C@H]1O (stereo partly shown) [xylobiose],"reducing sugar release (DNSA, 540 nm); TLC","CshA-L-Xyl and Xyl-L-CshA (i.e., with linker peptide) had higher catalytic activity towards all XOS substrates"
